Converted amounts (≈) assume the structure as drawn.
Columns and labels:
K562/ADR = assay: Leukemia cell growth inhibition, MTT, 72 h; type: cell-based; conditions: Homo sapiens
Method in brief: (§1)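 Each leukemia line (K562/ADR, H9, Jurkat, Kasumi-1) was seeded at 6000 cells/well and dosed the next day with oridonin derivatives at several concentrations. Plates were incubated 72 h at 37° C in 5% CO2, then viable cells quantified by MTT.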

Kasumi-1 = assay: Leukemia cell growth inhibition, MTT, 72 h; type: cell-based; conditions: Homo sapiens
Method in brief: as §1

H9 = assay: Leukemia cell growth inhibition, MTT, 72 h; type: cell-based, human; conditions: Homo sapiens, H9; 72 h, MTT
Method in brief: as §1

Jurkat = assay: Leukemia cell growth inhibition, MTT, 72 h; type: cell-based, human; conditions: Homo sapiens, Jurkat; 72 h, MTT
Method in brief: as §1

NB4 = assay: Leukemia cell growth inhibition, MTT, 72 h; type: cell-based, human; conditions: Homo sapiens, NB-4; 72 h, MTT
Method in brief: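 MTT read-out of viable cell concentration after 72 hours of exposure at 37° C under 5% CO2. Compounds were dosed at several concentrations one day after plating 6000 cells per well.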

RPMI 8226 = assay: Multiple myeloma cell growth inhibition, MTT, 72 h; type: cell-based; conditions: Homo sapiens
Method in brief: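 Growth inhibition by MTT after 72 h drug exposure (37 °C, 5% CO2) over a concentration range of oridonin derivatives. RPMI 8226 cells plated at 6000 per well and dosed the following day.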

CNE = assay: Solid tumor cell growth inhibition, MTT, 72 h; type: cell-based, human; conditions: Homo sapiens, CNE; 72 h, MTT
Method in brief: (§2)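 Human tumor cells at 6000 per well grew 24 hours in DMEM high glucose with 10% fetal bovine serum at 37° C, 5% CO2. Oridonin derivatives at varied concentrations were added for 72 hours, then viable cells were measured by MTT.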

Hela = assay: Solid tumor cell growth inhibition, MTT, 72 h; type: cell-based, human; conditions: Homo sapiens, HeLa; 72 h, MTT
Method in brief: as §2

Hep-2 = assay: Solid tumor cell growth inhibition, MTT, 72 h; type: cell-based, human; conditions: Homo sapiens, HEp-2; 72 h, MTT
Method in brief: as §2

MGC-803 = assay: Solid tumor cell growth inhibition, MTT, 72 h; type: cell-based, human; conditions: Homo sapiens, MGC-803; 72 h, MTT
Method in brief: as §2

A549 = assay: Solid tumor cell growth inhibition, MTT, 72 h; type: cell-based; conditions: Homo sapiens
Method in brief: as §2

Becap-37 = assay: Solid tumor cell growth inhibition, MTT, 72 h; type: cell-based; conditions: Homo sapiens
Method in brief: as §2

CaEs-17 = assay: Solid tumor cell growth inhibition, MTT, 72 h; type: cell-based; conditions: Homo sapiens, CaEs17
Method in brief: as §2

Hep G2 = assay: Solid tumor cell growth inhibition, MTT, 72 h; type: cell-based; conditions: Homo sapiens, HepG2
Method in brief: as §2

MG-63 = assay: Solid tumor cell growth inhibition, MTT, 72 h; type: cell-based; conditions: Homo sapiens
Method in brief: as §2

PANC-1 = assay: Solid tumor cell growth inhibition, MTT, 72 h; type: cell-based; conditions: Homo sapiens
Method in brief: as §2

PC-3 = assay: Solid tumor cell growth inhibition, MTT, 72 h; type: cell-based; conditions: Homo sapiens
Method in brief: as §2

RKO = assay: Solid tumor cell growth inhibition, MTT, 72 h; type: cell-based; conditions: Homo sapiens
Method in brief: as §2

SK-OV-3 = assay: Solid tumor cell growth inhibition, MTT, 72 h; type: cell-based; conditions: Homo sapiens, SK-OV-3, 72 h, MTT; for IC50: read-out: IC50 SK-OV-3; for IC90: read-out: IC90 SK-OV-3
Method in brief: as §2

U87-MG = assay: Solid tumor cell growth inhibition, MTT, 72 h; type: cell-based; conditions: Homo sapiens, U-87 MG
Method in brief: as §2

IC50 (K562/ADR) [µg/mL]	IC90 (K562/ADR) [µg/mL]	IC50 (Kasumi-1) [µg/mL]	IC90 (Kasumi-1) [µg/mL]	IC50 (H9) [µg/mL]	IC90 (H9) [µg/mL]	IC50 (Jurkat) [µg/mL]	IC90 (Jurkat) [µg/mL]	IC50 (NB4) [µg/mL]	IC90 (NB4) [µg/mL]	IC50 (RPMI 8226) [µg/mL]	IC90 (RPMI 8226) [µg/mL]	IC50 (CNE) [µg/mL]	IC90 (CNE) [µg/mL]	IC50 (Hela) [µg/mL]	IC90 (Hela) [µg/mL]	IC50 (Hep-2) [µg/mL]	IC90 (Hep-2) [µg/mL]	IC50 (MGC-803) [µg/mL]	IC90 (MGC-803) [µg/mL]	Structure (SMILES)	further results
0.43 (≈ 0.873 µM)	1.74 (≈ 3.53 µM)	0.58 (≈ 1.18 µM)	1.55 (≈ 3.15 µM)	2.69 (≈ 5.46 µM)	5.41 (≈ 11 µM)	0.58 (≈ 1.18 µM)	2.48 (≈ 5.03 µM)	1.02 (≈ 2.07 µM)	3.66 (≈ 7.43 µM)	0.34 (≈ 0.69 µM)	1.7 (≈ 3.45 µM)	7.19 (≈ 14.6 µM)	> 16	1.43 (≈ 2.9 µM)	3.74 (≈ 7.59 µM)	10.7 (≈ 21.7 µM)	> 16	4.98 (≈ 10.1 µM)	12 (≈ 24.4 µM)	C=C1C(=O)[C@]23[C@H](OC(=O)/C=C/c4ccccc4)[C@H]1CC[C@H]2[C@@]12CO[C@@]3(O)[C@@H](O)[C@@H]1C(C)(C)CCC2=O [BS-OR-019]	IC50 (A549): 1.66 µg/mL (≈ 3.37 µM); IC90 (A549): 4.43 µg/mL (≈ 8.99 µM); IC50 (Becap-37): 0.89 µg/mL (≈ 1.81 µM); IC90 (Becap-37): 8.43 µg/mL (≈ 17.1 µM); IC50 (CaEs-17): 0.89 µg/mL (≈ 1.81 µM); IC90 (CaEs-17): 5.62 µg/mL (≈ 11.4 µM); IC50 (Hep G2): 0.94 µg/mL (≈ 1.91 µM); IC90 (Hep G2): 14.6 µg/mL (≈ 29.7 µM); IC50 (MG-63): 0.35 µg/mL (≈ 0.711 µM); IC90 (MG-63): 0.79 µg/mL (≈ 1.6 µM); IC50 (PANC-1): 1.53 µg/mL (≈ 3.11 µM); IC90 (PANC-1): 9.62 µg/mL (≈ 19.5 µM); IC50 (PC-3): 1.41 µg/mL (≈ 2.86 µM); IC90 (PC-3): 3.86 µg/mL (≈ 7.84 µM); IC50 (RKO): 0.38 µg/mL (≈ 0.771 µM); IC90 (RKO): 0.89 µg/mL (≈ 1.81 µM); IC50 (SK-OV-3): 1.41 µg/mL (≈ 2.86 µM); IC90 (SK-OV-3): 3.86 µg/mL (≈ 7.84 µM); IC50 (U87-MG): 0.77 µg/mL (≈ 1.56 µM); IC90 (U87-MG): 2.43 µg/mL (≈ 4.93 µM)
0.6 (≈ 1.29 µM)	1.73 (≈ 3.71 µM)	0.72 (≈ 1.54 µM)	1.86 (≈ 3.99 µM)	0.45 (≈ 0.965 µM)	0.95 (≈ 2.04 µM)	0.68 (≈ 1.46 µM)	2.63 (≈ 5.64 µM)	0.14 (≈ 0.3 µM)	0.47 (≈ 1.01 µM)	0.41 (≈ 0.879 µM)	1.89 (≈ 4.05 µM)	1.41 (≈ 3.02 µM)	5.45 (≈ 11.7 µM)	1.65 (≈ 3.54 µM)	4.67 (≈ 10 µM)	1.64 (≈ 3.52 µM)	7.7 (≈ 16.5 µM)	0.88 (≈ 1.89 µM)	11 (≈ 23.5 µM)	C=C1C(=O)[C@]23[C@H](OC(=O)c4ccccc4)[C@H]1CC[C@H]2[C@@]12CO[C@@]3(O)[C@@H](O)[C@@H]1C(C)(C)CCC2=O [BS-OR-001]	IC50 (A549): 2.6 µg/mL (≈ 5.57 µM); IC90 (A549): 6.08 µg/mL (≈ 13 µM); IC50 (Becap-37): 1.12 µg/mL (≈ 2.4 µM); IC90 (Becap-37): 3.79 µg/mL (≈ 8.12 µM); IC50 (CaEs-17): 1.21 µg/mL (≈ 2.59 µM); IC90 (CaEs-17): 5.47 µg/mL (≈ 11.7 µM); IC50 (Hep G2): 0.98 µg/mL (≈ 2.1 µM); IC90 (Hep G2): 10.6 µg/mL (≈ 22.7 µM); IC50 (MG-63): 0.47 µg/mL (≈ 1.01 µM); IC90 (MG-63): 0.99 µg/mL (≈ 2.12 µM); IC50 (PANC-1): 1.79 µg/mL (≈ 3.84 µM); IC90 (PANC-1): 6.42 µg/mL (≈ 13.8 µM); IC50 (PC-3): 1.67 µg/mL (≈ 3.58 µM); IC90 (PC-3): 3.8 µg/mL (≈ 8.15 µM); IC50 (RKO): 0.46 µg/mL (≈ 0.986 µM); IC90 (RKO): 0.94 µg/mL (≈ 2.01 µM); IC50 (SK-OV-3): 1.67 µg/mL (≈ 3.58 µM); IC90 (SK-OV-3): 3.8 µg/mL (≈ 8.15 µM); IC50 (U87-MG): 0.8 µg/mL (≈ 1.71 µM); IC90 (U87-MG): 2.36 µg/mL (≈ 5.06 µM)
0.73 (≈ 1.34 µM)	2.31 (≈ 4.24 µM)	0.76 (≈ 1.39 µM)	2.85 (≈ 5.23 µM)	0.89 (≈ 1.63 µM)	1.84 (≈ 3.37 µM)	0.88 (≈ 1.61 µM)	4.31 (≈ 7.9 µM)	0.27 (≈ 0.495 µM)	1.34 (≈ 2.46 µM)	0.59 (≈ 1.08 µM)	3.84 (≈ 7.04 µM)	1.8 (≈ 3.3 µM)	7.21 (≈ 13.2 µM)	1.79 (≈ 3.28 µM)	7.19 (≈ 13.2 µM)	1.92 (≈ 3.52 µM)	7.4 (≈ 13.6 µM)	1.65 (≈ 3.03 µM)	8.86 (≈ 16.2 µM)	C=C1C(=O)[C@]23[C@H](OC(=O)c4ccccc4Br)[C@H]1CC[C@H]2[C@@]12CO[C@@]3(O)[C@@H](O)[C@@H]1C(C)(C)CCC2=O [BS-OR-020]	IC50 (A549): 2.76 µg/mL (≈ 5.06 µM); IC90 (A549): 5.78 µg/mL (≈ 10.6 µM); IC50 (Becap-37): 1.31 µg/mL (≈ 2.4 µM); IC90 (Becap-37): 3.95 µg/mL (≈ 7.24 µM); IC50 (CaEs-17): 1.78 µg/mL (≈ 3.26 µM); IC90 (CaEs-17): 7.28 µg/mL (≈ 13.3 µM); IC50 (Hep G2): 1.68 µg/mL (≈ 3.08 µM); IC90 (Hep G2): 7.35 µg/mL (≈ 13.5 µM); IC50 (MG-63): 0.76 µg/mL (≈ 1.39 µM); IC90 (MG-63): 4.52 µg/mL (≈ 8.29 µM); IC50 (PANC-1): 2.32 µg/mL (≈ 4.25 µM); IC90 (PANC-1): 6.09 µg/mL (≈ 11.2 µM); IC50 (PC-3): 2.56 µg/mL (≈ 4.69 µM); IC90 (PC-3): 7.07 µg/mL (≈ 13 µM); IC50 (RKO): 0.84 µg/mL (≈ 1.54 µM); IC90 (RKO): 1.94 µg/mL (≈ 3.56 µM); IC50 (SK-OV-3): 2.56 µg/mL (≈ 4.69 µM); IC90 (SK-OV-3): 7.07 µg/mL (≈ 13 µM); IC50 (U87-MG): 1.19 µg/mL (≈ 2.18 µM); IC90 (U87-MG): 3.69 µg/mL (≈ 6.77 µM)

Source: US9902736B2, “1-oxo/acylation-14-acylated oridonin derivative, preparation method therefor and application thereof” (HANGZHOU BENSHENG PHARMACEUTICAL CO., LTD., priority 2012, dated 2018)
